The values that follow come from article PMC10713593, “Staphylococcus aureus functional amyloids catalyze degradation of β-lactam antibiotics” (Nature Communications, 2023).

Structures are written as SMILES.

Data set [1] can be described thus: Nitrocefin hydrolysis kinetics (absorbance of degraded nitrocefin at 480 nm; initial rates V0, Michaelis-Menten fit). In kind it is biochemical. On the set-up: Initial nitrocefin-degradation reaction rate, V0: unit not given here. The note with it: nitrocefin 60 µM; for Initial nitrocefin-degradation reaction rate, V0: Hepes pH 7.4, average of the six runs; for nitrocefin degradation yield (turnover): PSMα assemblies 350 µM, Hepes 50 mM pH 7.4, 20 °C, A480, monitored 2 h (Fig. 2a). On the procedure:
Nitrocefin, a β-lactam widely used as a surrogate substrate of Penicillin in β-lactamase activity assay, was used as a substrate. NC degradation was monitored for 2 h. Nitrocefin stock solution was dissolved in acetonitrile (20 mM) and then diluted with Hepes buffer (50 mM, pH 7.4) to nitrocefin concentration of 360 µM (further dilutions to lower concentrations were made with the 360 µM NC stock). All nitrocefin samples were kept on ice in cold conditions and any further dilution or mixing was performed in ice-cold conditions to avoid self-hydrolysis background reaction. […] Immediately after mixing the samples, the plate was transferred to 20̊ °C pre-cooled plate reader (Multiskan GO, Thermo Scientific, Waltham, MA) and shaken slowly for 10 s. Then, the absorbance of degraded nitrocefin was measured for 2 h at interval of 20 s at λ = 480 nm. Initial production rates (V0) were calculated by slope of the initial linear range of degraded-nitrocefin production at the first 15 min. The reported results are and average of at least five separate measurements (the exact number of repeats, N, is reported next to the values). Each experiment also included blank samples of nitrocefin substrate diluted with buffer instead of PSMα. […] The initial rate calculations were performed while also subtracting the self-degradation of the substrate, to ensure that this product absorbance is a result of PSMα presence.
The initial rates of degraded-nitrocefin production were calculated from the slopes of the first 15 min of measurement as reported above. The initial rates (V0) were fitted using non-linear regression applied with the solver function in excel, either to Michalis–Menten equation V=Vmax.[S]/(KM+S) Where Vmax. Stands for maximal reaction rate, KM stands for Michalis–Menten constant, [S] stands for the substrate molar concentration. Each initial rate value was presented as average ± SEM. The kinetic parameters were calculated by fitting the data to MM model using non-linear regression, and the confidence intervals for each parameter were calculated accordingly.

The target in data set [2] is PSMα3 fibrils (Staphylococcus aureus, UniProt A9JX07). As to the kind of experiment: LC-MS degradation of amoxicillin and penicillin G with PSMα3 fibrils or buffer. The note with it: for Amoxicillin (remaining) / Degraded Amoxicillin: buffer only (blank); for Amoxicillin (remaining) / Degraded Amoxicillin / Amoxicillin (PSMa3) (remaining) / Degraded Amoxicillin (PSMa3): LC-MS; for Amoxicillin (remaining) / Amoxicillin (PSMa3) (remaining): 366 peak as share of 366+384 sum; for Degraded Amoxicillin / Degraded Amoxicillin (PSMa3): 384 peak as share of 366+384 sum. On the set-up: key to Amoxicillin (remaining) / Degraded Amoxicillin (PSMa3) / Degraded Amoxicillin: % relative abundance from extracted ion chromatogram peak areas. In kind it is biochemical. As for the experimental part: Amoxicillin or Penicillin solutions were dissolved in Hepes buffer (50 mM, pH 7.4) in concentration of 50 µM. PSMα3 solution in concentration of 1.54 mM was dissolved in DIW and Hepes buffer was added to the final concentration of 50 mM. The antibiotics’ solutions and preincubated PSMα3 solutions were mixed to final PSMα3 […] 180 µL organic solvent to stop the reaction (acetonitrile for Amoxicillin, methanol in the case of Penicillin). The samples were collected and injected sequentially into the LC-MS analysis.
Chain of PSMα3 fibrils (A9JX07 whole entry, looked up): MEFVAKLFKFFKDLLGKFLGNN
Waters ACQUITY UPLC I-Class PLUS System coupled with high-resolution Thermo Orbitrap Exploris 240 mass-spectrometer were used for analysis of Amoxicillin and Penicillin-G over time. 1 µL of each sample was injected into the reverse-phase Acquity UPLC BEH C18 1.7 µm, 2.1 × 50 mm column (Waters) and run under a gradient program (Table S2 for Amoxicillin, Table S3 for Penicillin-G). The samples were ionized using soft electrospray ionization in positive mode and detected in a full scan mode in range from 60 to 900 m/z with a resolution of 240,000 Full Width at Half Maximum. MS was tuned according to the manufacture recommendations. Relative abundance of the intact/degraded compounds was calculated by peak area of the extracted ion chromatogram: for Amoxicillin 366.1–366.12, and degraded-Amoxicillin 384.1–384.13 m/z, Penicillin-G 335.1–335.12, for degraded-Penicillin-G 353.1–353.12, for (Figs. S13 and S14, respectively).

As for `CC[C@H](C)[C@H](NC(=O)CNC(=O)[C@@H](N)CCSC)C(=O)N[C@H](C(=O)N[C@@H](C)C(=O)NCC(=O)N[C@H](C(=O)N[C@H](C(=O)N[C@@H](CCCCN)C(=O)N[C@@H](Cc1ccccc1)C(=O)N[C@H](C(=O)N[C@@H](CCCCN)C(=O)NCC(=O)N[C@@H](CC(C)C)C(=O)N[C@H](C(=O)N[C@@H](CCC(=O)O)C(=O)N[C@@H](CCCCN)C(=O)N[C@@H](Cc1ccccc1)C(=O)N[C@H](C(=O)NCC(=O)N[C@@H](CCCCN)C(=O)O)[C@@H](C)O)[C@@H](C)CC)[C@@H](C)CC)[C@@H](C)CC)[C@@H](C)CC)[C@@H](C)CC` [PSMα2], the ATR-FTIR amide-I peak/maximum was 1650 cm⁻¹. In addition, in data set [1] (PSMα 4.01424 uM), the “Initial nitrocefin-degradation reaction rate, V0” value is 1.158. In addition, the “Initial nitrocefin-degradation reaction rate, V0” value in data set [1] (PSMα 6.02136 uM) was -0.4109. In data set [1] (PSMα 9.03205 uM), the “Initial nitrocefin-degradation reaction rate, V0” value is listed as 0.9321. The “Initial nitrocefin-degradation reaction rate, V0” value in data set [1] (PSMα 13.5481 uM) came out at 0.6055. In addition, the “Initial nitrocefin-degradation reaction rate, V0” value in data set [1] (PSMα 20.3221 uM) amounted to 1.35. In addition, the “Initial nitrocefin-degradation reaction rate, V0” value in data set [1] (PSMα 30.4832 uM) was found to be 1.3793. In addition, in data set [1] (PSMα 45.7247 uM), the “Initial nitrocefin-degradation reaction rate, V0” value was 2.588. Besides, the “Initial nitrocefin-degradation reaction rate, V0” value in data set [1] (PSMα 68.5871 uM) came out at 11.4228. The “Initial nitrocefin-degradation reaction rate, V0” value in data set [1] (PSMα 102.881 uM) worked out at 36.0382. Also, the “Initial nitrocefin-degradation reaction rate, V0” value in data set [1] (PSMα 154.321 uM) is recorded as 59.4111. Moreover, the “Initial nitrocefin-degradation reaction rate, V0” value in data set [1] (PSMα 231.481 uM) was determined as 94.344. The “Initial nitrocefin-degradation reaction rate, V0” value in data set [1] (PSMα 347.222 uM) was determined as 117.315. Moreover, in data set [1], the “nitrocefin degradation yield (turnover)” value is reported as around 100%.

`CC[C@H](C)[C@H](NC(=O)[C@H](C)NC(=O)[C@@H](N)CCSC)C(=O)N[C@H](C(=O)NCC(=O)N[C@H](C(=O)N[C@H](C(=O)N[C@H](C(=O)N[C@@H](CCCCN)C(=O)N[C@H](C(=O)N[C@H](C(=O)N[C@@H](CCCCN)C(=O)N[C@@H](C)C(=O)N[C@H](C(=O)N[C@H](C(=O)N[C@@H](CC(=O)O)C(=O)N[C@H](C(=O)N[C@@H](Cc1ccccc1)C(=O)N[C@@H](C)C(=O)N[C@@H](CCCCN)C(=O)O)[C@@H](C)CC)[C@@H](C)CC)[C@@H](C)CC)[C@@H](C)CC)[C@@H](C)CC)[C@@H](C)CC)[C@@H](C)CC)[C@@H](C)O)C(C)C` [PSMα4] showed an ATR-FTIR amide-I peak/maximum of 1620 cm⁻¹. Further, the “Initial nitrocefin-degradation reaction rate, V0” value in data set [1] (PSMα 4.01424 uM) came to 0.5451. For the same compound, in data set [1] (PSMα 6.02136 uM), the “Initial nitrocefin-degradation reaction rate, V0” value is 0.5496. The “Initial nitrocefin-degradation reaction rate, V0” value in data set [1] (PSMα 9.03205 uM) is on record as -0.2169. The “Initial nitrocefin-degradation reaction rate, V0” value in data set [1] (PSMα 13.5481 uM) was 1.372. Also, the “Initial nitrocefin-degradation reaction rate, V0” value in data set [1] (PSMα 20.3221 uM) stood at 0.8016. Also, the “Initial nitrocefin-degradation reaction rate, V0” value in data set [1] (PSMα 30.4832 uM) stood at 1.8. Further, the “Initial nitrocefin-degradation reaction rate, V0” value in data set [1] (PSMα 45.7247 uM) came out at 3.313. Further, the “Initial nitrocefin-degradation reaction rate, V0” value in data set [1] (PSMα 68.5871 uM) was -1.824. For the same compound, in data set [1] (PSMα 102.881 uM), the “Initial nitrocefin-degradation reaction rate, V0” value is 15.0899. Moreover, the “Initial nitrocefin-degradation reaction rate, V0” value in data set [1] (PSMα 154.321 uM) is reported as 17.903. In data set [1] (PSMα 231.481 uM), the “Initial nitrocefin-degradation reaction rate, V0” value stood at 15.5904. In addition, the “Initial nitrocefin-degradation reaction rate, V0” value in data set [1] (PSMα 347.222 uM) worked out at 26.4203. Moreover, in data set [1], the “nitrocefin degradation yield (turnover)” value is on record as ~ 15%.

As to `CC1(C)S[C@@H]2[C@H](NC(=O)[C@H](N)c3ccc(O)cc3)C(=O)N2[C@H]1C(=O)O` [amoxycillin], the “hydrolysis by PSMα3 fibrils versus spontaneous degradation” value in data set [2] (antibiotic 40 µM, PSMα3 fibrils 308 µM, Hepes 50 mM pH 7.4, LC-MS (Fig. 6)) is reported as “significantly higher extent compared to the spontaneous degradation”. Moreover, the “Amoxicillin (remaining)” value turned out to be 81.4445 in data set [2] (0h); 80.1864 in data set [2] (4h); 79.6866 in data set [2] (8h); 78.9455 in data set [2] (12h); 78.1892 in data set [2] (24h); 69.9317 in data set [2] (60h). Besides, the “Amoxicillin (remaining)” value in data set [2] (72h) is 68.3628; in data set [2] (80h), 59.5525. The “Degraded Amoxicillin” value amounted to 18.5555 in data set [2] (0h); 19.8136 in data set [2] (4h); 20.3134 in data set [2] (8h); 21.0545 in data set [2] (12h); 21.8108 in data set [2] (24h); 30.0683 in data set [2] (60h). Moreover, the “Degraded Amoxicillin” value in data set [2] (72h) is 31.6372; in data set [2] (80h), 40.4475. The “Amoxicillin (PSMa3) (remaining)” value in data set [2] (with PSMa3, 0h) is 79.7112; in data set [2] (with PSMa3, 4h), 78.2636; in data set [2] (with PSMa3, 8h), 74.8273; in data set [2] (with PSMa3, 12h), 70.3173; in data set [2] (with PSMa3, 24h) it was 62.2462; in data set [2] (with PSMa3, 60h), 12.8041. Moreover, the “Amoxicillin (PSMa3) (remaining)” value was 5.039 in data set [2] (with PSMa3, 72h) and 3.011 in data set [2] (with PSMa3, 80h). For the same compound, the “Degraded Amoxicillin (PSMa3)” value in data set [2] (with PSMa3, 0h) was determined as 20.2888; in data set [2] (with PSMa3, 4h), 21.7364; in data set [2] (with PSMa3, 8h), 25.1727; in data set [2] (with PSMa3, 12h), 29.6827; in data set [2] (with PSMa3, 24h), 37.7538; in data set [2] (with PSMa3, 60h), 87.1959. Besides, the “Degraded Amoxicillin (PSMa3)” value in data set [2] (with PSMa3, 72h) is on record as 94.9606; in data set [2] (with PSMa3, 80h), 96.9892.
